Patent publication US20240398771A1, “TREATMENT OF SCLERODERMA AND RAYNAUD'S SYNDROME” (Aisa Pharma, Inc., priority 2023, published 2024)

How the values were obtained:
[1] = tested on: participants with SSc-RP; experiment: Frequency of weekly symptomatic RP attacks (patient diary), Phase 2a Part A; assay type: in vivo, human; conditions: ITT Part A
Protocol: Part A—Double-blind, Placebo-controlled, Parallel-group, Dose selection, will assess the safety and efficacy of two doses of cilnidipine (10 mg and 20 mg), alone and in combination with tadalafil. A total of 36 participants will be randomized to one of six pre-specified treatment arms. See Example 3 for data obtained in this phase of the study thus far, on 11 participants.
Please refer to FIG. 1 for treatment arms in Part A of the study. Dosing lasted or will last for 12 (±2) days in which participants self-administered or will self-administer daily doses of assigned treatment in the morning. Each participant took or will take one capsule and one tablet to blind the active therapy being received.
(§1) The relevant metrics measured by this tool daily are: • Study medication • SSc-RP symptoms (Reporting an attack including duration of attack) • Severity of the attack considering all symptoms of the attack e.g. tingling, numbness, pain, color changes (VAS 0-10 cm scale) • Participant's location at the time of the attack (inside home/outside home) • Selecting symptoms experienced during the attack (tingling, numbness, pain, color changes, other) • Pain rating during the attack (11-point Likert scale) • The RCS based on how much difficulty participants had with Raynaud's today, how many attacks the participant had, and how long they lasted. Participants will also be asked to consider how much pain, numbness, or other symptoms the Raynaud's caused in fingers (including painful sores), and how much the Raynaud's alone affected the use of hands today (VAS 0-10 cm scale).
Percent change from baseline evaluation for frequency of weekly RP attacks were or will be used as the primary efficacy variable. The sponsor-developed participant-informed diary will be used to record data. Frequency of weekly RP attacks is defined as the total number of RP attacks divided by the number of days with available diary data within the last 7 days of each dosing period then multiplied by 7. Total number of RP attacks during the last 7 days of screening period divided by the number of days with available data then multiplied by 7 will be used as baseline for the analysis of all periods.
Percentage change={(weekly RP attacks for the last 7 days of each dosing period−Baseline weekly RP attacks)/Baseline weekly RP attacks}*100%.
Absolute change=weekly RP attacks for the last 7 days of each dosing period−Baseline weekly RP attacks
Percent change from baseline evaluation for frequency of weekly RP attacks was and will be the primary efficacy endpoint. Frequency of weekly RP attacks is defined as the total number of RP attacks divided by the number of days with available diary data within the last 7 days of each dosing period then multiplied by 7. Total number of RP attacks during the last 7 days of screening period divided by the number of days with available data then multiplied by 7 will be used as baseline for the analysis of all periods.
The following data was actually obtained in accordance with the protocol and plan delineated in Examples 1 and 2. The accompanying data involved 11 patients out of the planned 76 patient study. The study was done in patients with scleroderma (systemic sclerosis) who had relatively frequent Raynaud symptoms as they needed to average at least one attack per day during a screening period of up to two weeks. In this first phase of this double-blind placebo-controlled, prospective randomized study, patients were treated in parallel and after meeting study criteria were randomized to receive either placebo, cilnidipine 10 mg daily, cilnidipine 20 mg daily, tadalafil 5 mg daily, cilnidipine 10 mg plus 5 mg of tadalafil, or cilnidipine 20 mg plus 5 mg of tadalafil.

[2] = tested on: participants with SSc-RP; experiment: Average severity (0-10) of weekly RP attacks, all attacks; assay type: in vivo, human; conditions: Tadalafil 5 mg; excluding outliers; baseline RCS subgroup 2 of 2; ITT Part A
Source text: as §1
The absolute change in average severity of weekly RP attacks (VAS 0-10 cm scale) from baseline to the end of each Dosing Period was and will be a secondary outcome variable. The sponsor-developed participant-informed diary will be used to record data. Average severity of weekly RP attacks is defined as the total severity scores of RP attacks divided by total number of RP attacks within the last 7 days of each dosing period. Total severity scores of RP attacks during the last 7 days of screening period divided by the total number of RP attacks will be used as baseline for the analysis of all periods. The variable will be calculated similar to frequency data as before.

[3] = Table A-1, last 7 days of dosing period
[4] = Table A-1, last 7 days of dosing vs last 7 days of screening
[5] = Table A-2, excluding outliers, last 7 days of dosing period
[6] = Table A-3 by baseline RCS, second sub-table (heading not given; RCS >5.0)

CN1CC(=O)N2[C@H](c3ccc4c(c3)OCO4)c3[nH]c4ccccc4c3C[C@@H]2C1=O [Tadalafil]
Weekly Symptomatic RP Attacks, Min [1, 3]: 7.0 | Weekly Symptomatic RP Attacks, Q1 [1, 3]: 7.00 | Weekly Symptomatic RP Attacks Change from Baseline, Mean (SD) [1, 4]: 4.50 (2.121) | Weekly Symptomatic RP Attacks Change from Baseline, Median [1, 4]: 4.50 | Weekly Symptomatic RP Attacks Change from Baseline, Min [1, 4]: 3.0 | Weekly Symptomatic RP Attacks Change from Baseline, Q1 [1, 4]: 3.00 | Weekly Symptomatic RP Attacks Percent Change from Baseline, Max [1, 4]: 75.0% | Weekly Symptomatic RP Attacks Percent Change from Baseline, Q3 [1, 4]: 75.00% | Weekly Symptomatic RP Attacks Change from Baseline, Max ([1]; Table A-2, excluding outliers): 6.0, 6.0 | Weekly Symptomatic RP Attacks Change from Baseline, Q3 ([1]; Table A-2, excluding outliers): 6.00, 6.00 | Weekly Symptomatic RP Attacks Percent Change from Baseline, Min ([1]; Table A-2, excluding outliers): 50.0, 50.0% | Weekly Symptomatic RP Attacks Percent Change from Baseline, Q1 ([1]; Table A-2, excluding outliers): 50.00, 50.00% | Weekly Symptomatic RP Attacks, Max [1, 5]: 18.0, 18.0 | Weekly Symptomatic RP Attacks, Q3 [1, 5]: 18.00, 18.00 | Weekly Symptomatic RP Attacks Change from Baseline, Max [1, 6]: 6.0 | Weekly Symptomatic RP Attacks Change from Baseline, Min [1, 6]: 3.0 | Weekly Symptomatic RP Attacks Change from Baseline, Q1 [1, 6]: 3.00 | Weekly Symptomatic RP Attacks Change from Baseline, Q3 [1, 6]: 6.00 | Weekly Symptomatic RP Attacks Percent Change from Baseline, Max [1, 6]: 75.0% | Weekly Symptomatic RP Attacks Percent Change from Baseline, Min [1, 6]: 50.0% | Weekly Symptomatic RP Attacks Percent Change from Baseline, Q1 [1, 6]: 50.00% | Weekly Symptomatic RP Attacks Percent Change from Baseline, Q3 [1, 6]: 75.00% | Weekly Symptomatic RP Attacks, Max [1, 6]: 18.0 | Weekly Symptomatic RP Attacks, Min [1, 6]: 7.0 | Weekly Symptomatic RP Attacks, Q1 [1, 6]: 7.00 | Weekly Symptomatic RP Attacks, Q3 [1, 6]: 18.00 | Average Severity of Weekly RP Attacks (All Attacks): Average Severity, Mean [2]: 4.56 | Average Severity of Weekly RP Attacks (All Attacks): Average Severity, Median [2]: 4.56 | Average Severity of Weekly RP Attacks (All Attacks): Baseline, Mean [2]: 5.75 | Average Severity of Weekly RP Attacks (All Attacks): Baseline, Median [2]: 5.75
